Measurements published in article PMC6277434, “Discovery of a potent HMG-CoA reductase degrader that eliminates statin-induced reductase accumulation and lowers cholesterol” (Nature Communications, 2018).
“And” between values parts separate entries of the source, which are not always exact repeats. Equal entries are not always repeated.

Key:
Format in all cases: in vivo
[1] = system: C57BL/6J mice fed MFMC diet; assay: Diet-induced hyperlipidemia: serum and liver TC/TG and FPLC lipoprotein profile in mice on MFMC diet; details: for TC levels in liver, mean / TC levels in the serum, mean / TG levels in liver, mean / TG levels in the serum, mean / TC levels in liver, individual mice / TC levels in the serum, individual mice / TG levels in liver, individual mice / TG levels in the serum, individual mice: 60 mg/kg/day (each agent) gavage once daily 6 weeks; for TC levels in liver, individual mice / TC levels in the serum, individual mice / TG levels in liver, individual mice / TG levels in the serum, individual mice: 60 mg/kg/day; for total cholesterol (TC) and triglyceride (TG) levels in both serum and liver / cholesterol contents in VLDL, LDL and HDL (FPLC serum lipoprotein profile): 6 weeks; for total cholesterol (TC) and triglyceride (TG) levels in both serum and liver: in words; for cholesterol contents in VLDL, LDL and HDL (FPLC serum lipoprotein profile): pooled serum
Text: (§1) Male C57BL/6 mice (8-week-old) were obtained from Shanghai Laboratory Animal Company (SLAC) (Shanghai, China). Male Ldlr^−/− mice (8-week-old) were obtained from Nanjing Biomedical Research Institute of Nanjing University (Nanjing, China). Mice had ad libitum access to water and standard chow diet (SLAC) unless mentioned otherwise. Special diets included medium-fat-medium-cholesterol diet (chow diet with10% fat, 0.2% cholesterol and 0.5% sodium cholate, custom made in SLAC), and western diet (20% fat, 1.25% cholesterol, 0.5% sodium cholate, D12109C, Research Diets). Mice were maintained in a pathogen-free environment and kept on a 12-h light/dark schedule. Mice were gavaged as described in figure legends with saline containing 0.5% methyl cellulose and 0.5% Tween-80. All mice were used in accordance with the guidelines approved by the Institutional Animal Care and Use Committee of Wuhan University.
(§2) Mice were anesthetized and blood collection was performed. Serum was prepared from blood by centrifuging at 1500 × g for 10 min. Livers were harvested and homogenized in a 2:1 mixture of chloroform and methanol using Precellys 24 (Bertin). The organic phase was dried under N2 and liver lipids were reconstituted in ethanol. Total cholesterol and triglyceride levels in the serum and liver were determined using Cholesterol Assay Kit and Triglyceride Assay Kit (Shanghai Kehua Bio-engineering, China).
(§3) Serum lipoproteins were separated by FPLC (AKTA, GE Healthcare) using Superdex 75 10/300 GL (GE Healthcare) column. One hundred microliters pooled serum from five mice per group was diluted with 200 μl PBS, and loaded to the column. Fractions were eluted with PBS at a constant rate of 0.2 ml min^–1, and collected with 300 μl per tube. 100 μl fractions were used to quantify the concentration of total cholesterol level with the Amplex Red Cholesterol Assay Kit (Invitrogen). The cholesterol distribution curves of lipoproteins were done with GraphPad Prism 6 software.

[2] = Body weight and food intake of treated mice
[3] = system: Ldlr−/− mice on a western diet; assay: Atherosclerosis model: Ldlr−/− mice on western diet (Sudan IV aorta lesions, TC/TG, FPLC); details: for atherosclerotic lesions (en face Sudan IV staining of aortas), individual mice / atherosclerotic lesions (en face Sudan IV staining of aortas), mean: 60 mg/kg/day (each agent) gavage once daily 20 weeks; for aorta atherosclerotic lesions compared with vehicle / elevations of serum and liver TC and TG / serum cholesterol levels in VLDL, LDL and HDL (FPLC): 20 weeks; for aorta atherosclerotic lesions compared with vehicle: in words; for elevations of serum and liver TC and TG / serum cholesterol levels in VLDL, LDL and HDL (FPLC): Ldlr−/− mice, WD
Text: as §1, §2
To examine aorta atherosclerotic lesions, the aortic tree was isolated and fixed with 4% PFA. After removing perivascular adipose tissues, the atherosclerotic lesions were stained with Sudan IV for 10 min and washed with 70% ethanol for 3 min. The aortic tree was pinned to the black wax-filled petri dish containing PBS and imaged under a stereoscopic microscope (Olympus SZX16). The atherosclerotic lesions were quantified with Image J software (NIH)[66].
as §3

[4] = target: T1, HMGCR (Mus musculus, UniProt Q01237); assay: Immunoblotting of hepatic HMGCR protein (liver membrane fractions) of gavaged mice
T1 construct: from tissue; host or cells: mouse liver (membrane fraction)
T1 sequence (Q01237 1-887): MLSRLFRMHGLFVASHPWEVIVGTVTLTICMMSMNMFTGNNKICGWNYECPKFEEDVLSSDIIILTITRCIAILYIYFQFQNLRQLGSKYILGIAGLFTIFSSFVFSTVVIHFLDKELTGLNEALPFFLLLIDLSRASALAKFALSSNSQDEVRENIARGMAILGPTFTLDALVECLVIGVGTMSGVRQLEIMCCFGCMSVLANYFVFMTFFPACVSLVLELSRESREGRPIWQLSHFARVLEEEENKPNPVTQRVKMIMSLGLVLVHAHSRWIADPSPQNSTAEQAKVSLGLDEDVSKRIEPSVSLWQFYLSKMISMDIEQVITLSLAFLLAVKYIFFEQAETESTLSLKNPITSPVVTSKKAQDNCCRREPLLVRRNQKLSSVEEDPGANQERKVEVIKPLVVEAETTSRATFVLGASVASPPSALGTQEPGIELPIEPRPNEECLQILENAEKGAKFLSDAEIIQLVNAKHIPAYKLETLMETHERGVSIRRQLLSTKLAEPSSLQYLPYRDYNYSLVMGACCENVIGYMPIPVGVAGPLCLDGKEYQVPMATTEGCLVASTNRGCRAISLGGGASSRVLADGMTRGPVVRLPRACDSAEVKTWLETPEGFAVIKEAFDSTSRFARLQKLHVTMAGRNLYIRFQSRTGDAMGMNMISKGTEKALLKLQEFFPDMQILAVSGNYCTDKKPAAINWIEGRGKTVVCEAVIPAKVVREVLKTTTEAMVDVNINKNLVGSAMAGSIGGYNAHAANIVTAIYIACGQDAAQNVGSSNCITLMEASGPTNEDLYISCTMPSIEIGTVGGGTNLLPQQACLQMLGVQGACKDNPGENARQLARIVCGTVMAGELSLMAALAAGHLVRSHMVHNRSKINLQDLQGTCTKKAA

[5] = C57BL/6J mice, MFMC diet, 6 weeks

| SMILES | TC levels in liver, mean [1] | TC levels in the serum, mean [1] | TG levels in liver, mean [1] | TG levels in the serum, mean [1] | TC levels in liver, individual mice [1] | TC levels in the serum, individual mice [1] | TG levels in liver, individual mice [1] | TG levels in the serum, individual mice [1] | total cholesterol (TC) and triglyceride (TG) levels in both serum and liver [1] | cholesterol contents in VLDL, LDL and HDL (FPLC serum lipoprotein profile) [1] | body weight and food intake [2, 5] | atherosclerotic lesions (en face Sudan IV staining of aortas), individual mice [3] | atherosclerotic lesions (en face Sudan IV staining of aortas), mean [3] | aorta atherosclerotic lesions compared with vehicle [3] | elevations of serum and liver TC and TG [3] | serum cholesterol levels in VLDL, LDL and HDL (FPLC) [3] | other results |
| --- | --- | --- | --- | --- | --- | --- | --- | --- | --- | --- | --- | --- | --- | --- | --- | --- | --- |
| C=CCC(O)(CC=C)CCCC(C)C1CCC2C3C(O)C=C4C(C)(C)C(O)CCC4(C)C3CCC12C (stereo not drawn) [Cmpd 81] | 3.712 | 104.81 | 12.3264 | 55.4414 | 3.732 and 3.964 and 3.655 and 3.864 and 3.346 | 111 and 100.379 and 112.009 and 105.661 and 95 | 12.9147 and 9.311 and 13.437 and 16.1354 and 9.834 | 60.1534 and 51.6317 and 49.6138 and 57.1457 and 58.6623 | significantly lowered | reduced to similar levels | remained comparable | 32.5011 and 38.2916 and 37.5217 and 25.3733 and 31 | 32.9375 | Significantly less aorta lesions | significant effects on alleviating the elevations | remarkably reduced | body weight and food intake ([2]; Ldlr−/− mice, WD, up to 20 weeks): did not affect; liver HMGCR protein fold change, mean ([4]; C57BL/6J mice, chow diet, single agent 60 mg/kg/day gavage 10 days, vehicle = 1): 0.5524; decrease of liver HMGCR amount ([4]; Cmpd 81 alone, 60 mg/kg/day, 10 days): 50%; decrease of liver HMGCR relative to lovastatin-treated samples ([4]; co-administration of Cmpd 81 with lovastatin, each 60 mg/kg/day, 10 days): > 13 fold; liver HMGCR protein fold change, mean ([4]; mouse, in vivo): ~ 2 |
| CC[C@H](C)C(=O)O[C@H]1C[C@@H](C)C=C2C=C[C@H](C)[C@H](CC[C@@H]3C[C@@H](O)CC(=O)O3)[C@H]21 [Lovastatin, lovastatin] | 3.624 | 103.826 | 12.4726 | 54.3007 | 3.3 and 3.747 and 3.618 and 3.824 and 3.629 | 108.623 and 105.887 and 100.644 and 93.2834 and 110.692 | 14.0603 and 12.8492 and 8.103 and 12.4763 and 14.8742 | 51.0844 and 48 and 54.6444 and 61.1304 and 56.6444 | significantly lowered | reduced to similar levels | remained comparable | 31.5731 and 31.0783 and 37.0572 and 32.3991 and 25 | 31.4215 | Significantly less aorta lesions | significant effects on alleviating the elevations | remarkably reduced | hepatic HMGCR protein level, mean ([4]; C57BL/6J mice, 60 mg/kg/day gavage once daily 7 days, vehicle = 1, 60 mg/kg/day): 58.4 ± 3.5 fold and 58.3968 fold; hepatic HMGCR protein level, mean ([4]; C57BL/6J mice, 60 mg/kg/day gavage once daily 7 days, vehicle = 1, listed as lovastatin, 60 mg/kg/day): 58 fold; hepatic HMGCR protein level, individual mice ([4]; C57BL/6J mice, 60 mg/kg/day gavage once daily 7 days, vehicle mean = 1, 60 mg/kg/day): 61.3526 and 59.2668 and 54.571; liver HMGCR protein fold change, mean ([4]; C57BL/6J mice, chow diet, single agent 60 mg/kg/day gavage 10 days, vehicle = 1, listed as Lova): 32.3047; liver HMGCR protein fold change, mean ([4]; C57BL/6J mice, chow diet, single agent 60 mg/kg/day gavage 10 days, vehicle = 1, listed as lovastatin): more than 30 |
